BindingDB's records for doi:10.1111/cbdd.12105 (Umdnj-New Jersey Medical School, 2013)

target: Genome polyprotein (Hepatitis C virus genotype 1b (isolate BK), UniProt P26663); test: NS5B Inhibition Assay; details: pH 7; 30 °C
Source text: Inhibition assay using HCV NS5B.

Chain of Genome polyprotein (P26663 2420-3010 limits assumed): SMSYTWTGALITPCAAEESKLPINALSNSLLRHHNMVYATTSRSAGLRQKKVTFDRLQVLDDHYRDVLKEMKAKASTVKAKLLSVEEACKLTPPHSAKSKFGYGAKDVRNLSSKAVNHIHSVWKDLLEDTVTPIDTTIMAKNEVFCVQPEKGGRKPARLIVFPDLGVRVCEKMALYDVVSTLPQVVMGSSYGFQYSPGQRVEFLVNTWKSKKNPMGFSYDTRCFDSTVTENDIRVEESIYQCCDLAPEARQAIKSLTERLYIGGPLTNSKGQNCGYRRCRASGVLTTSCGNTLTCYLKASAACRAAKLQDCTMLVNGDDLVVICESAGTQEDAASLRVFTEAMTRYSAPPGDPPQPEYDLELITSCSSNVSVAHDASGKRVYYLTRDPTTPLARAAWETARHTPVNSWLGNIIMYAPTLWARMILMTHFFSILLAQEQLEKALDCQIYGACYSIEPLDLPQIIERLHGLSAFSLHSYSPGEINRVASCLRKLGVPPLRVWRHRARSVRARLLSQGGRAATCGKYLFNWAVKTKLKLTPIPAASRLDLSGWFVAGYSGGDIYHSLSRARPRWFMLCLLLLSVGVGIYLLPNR

Structure (SMILES)	IC50 [µM]
O=c1ccc2ccc(O)cc2o1 [umbelliferone]	36.6
Cc1cc(=O)oc2cc(O)ccc12 [4-Methyl-7-hydroxycoumarin]	33.8
C=CCOc1cc(OCC=C)c2ccc(=O)oc2c1 [Neoflavonoid derivative, 6a]	26.2
COc1cc(OC)c2c(C)cc(=O)oc2c1 [Coumarin derivative, 2b]	54.1
Cc1cc(=O)oc2cc(O)cc(O)c12 [Coumarin derivative, 1b]	47.2
COc1cc2c(cc1O)oc(=O)c1c3cc(O)c(O)cc3oc21 [LQB-34]	18
O=c1ccc2c(O)cc(O)cc2o1 [Coumarin derivative, 1a]	39.7
C=CCOc1cc(OCC=C)c2c(C)cc(=O)oc2c1 [Neoflavonoid derivative, 6b]	38.4
COc1cc(OC)c2ccc(=O)oc2c1 [Coumarin derivative, 2a]	58

The remaining lines, values ahead:

IC50 [µM]	Structure (SMILES)
17.9	C=CCc1c(O)c(CC=C)c2oc(=O)ccc2c1O [Neoflavonoid derivative, 8a]
30.3	C=CCOc1cc(OCC=C)c2c(-c3ccccc3)cc(=O)oc2c1 [Neoflavonoid derivative, 6c]
63	COc1cc(OC)c2c(-c3ccccc3)cc(=O)oc2c1 [5,7-dimethoxy-4-phenyl-chromen-2-one]
41.6	O=c1cc(-c2ccccc2)c2ccc(O)cc2o1 [7-Hydroxy-4-phenyl-chromen-2-one]
45.8	C=CCc1c(O)c(CC=C)c2oc(=O)cc(-c3ccccc3)c2c1O [Neoflavonoid derivative, 8c]
27	O=c1cc(-c2ccccc2)c2c(O)cc(O)cc2o1
